Measurements taken from ChEMBL document CHEMBL1201862, “PubChem BioAssay data set” (2004).
Calls of active or inactive are those of the source.

Columns and labels:
[1] = target: T1, DNA repair protein RAD52 homolog (Homo sapiens, UniProt P43351); assay type: functional, biochemical
T1 sequence (P43351 whole entry): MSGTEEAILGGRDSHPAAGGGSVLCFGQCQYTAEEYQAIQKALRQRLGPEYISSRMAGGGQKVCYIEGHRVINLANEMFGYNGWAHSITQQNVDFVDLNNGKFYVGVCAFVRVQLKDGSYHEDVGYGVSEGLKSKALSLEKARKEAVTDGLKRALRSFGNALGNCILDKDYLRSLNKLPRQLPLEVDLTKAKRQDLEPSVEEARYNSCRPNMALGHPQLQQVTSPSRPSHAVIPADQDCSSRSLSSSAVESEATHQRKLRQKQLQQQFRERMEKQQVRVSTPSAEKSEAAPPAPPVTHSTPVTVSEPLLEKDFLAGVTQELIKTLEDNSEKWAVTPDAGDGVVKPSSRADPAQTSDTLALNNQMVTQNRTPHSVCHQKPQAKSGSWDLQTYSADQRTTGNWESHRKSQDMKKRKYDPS

[2] = Luminescence Cell-Based Dose Response HTS to Identify Inhibitors of 5'UTR Stem-Loop Driven Prion Protein mRNA Translation in H4 Neuroglioblastoma Cells. [Related pubchem assays: 1827 (Project Summary), 1813 (Primary HTS)]; assay type: functional
[3] = non-specific 3'UTR reporter inhibition in Clone20-Shn3RL – cell-based, Renilla luciferase, cherry-picked, counter-screen for Shn3 inhibitor project, dose response (AID 624133); assay type: functional
[4] = Trypanosoma cruzi growth suppression in host cells – NIH3T3 host cells, beta-gal luminescence, confirmation (AID 2044); assay type: functional, cell-based;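 note: intracellular parasites grown in NIH/3T3 mouse fibroblasts as host cells; luminescent beta-galactosidase reporter signal from transgenic T. cruzi replicating inside host cells; inhibitors lower the luminescence signal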
[5] = alpha-synuclein stem-loop luciferase translation blockers – H4 neuroglioma cells, luminescence, confirmation (AID 1988); assay type: functional, cell-based
[6] = NIH3T3 cell viability loss – ATP luminescence, mouse fibroblasts, counter-screen, dose response (AID 2010); assay type: functional, cell-based;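 note: cells exposed to compound for about 90 hours before reading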
[7] = luciferase reporter signal suppression in cells – H4 neuroglioma cells, luminescence, dose response (AID 1990); assay type: functional, cell-based
[8] = loss of viability in HepG2 cells – cell-based, CellTiter-Glo, cherry-picked, cytotoxicity control for Shn3 inhibitor project, dose response (AID 624134); assay type: functional
[9] = reduction of Shn3 3'UTR-driven luciferase in osteoblasts – cell-based, Clone20 osteoblasts, firefly luciferase, cherry-picked, dose response (AID 624132); assay type: functional;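 note: firefly luciferase luminescence from reporter carrying the Shn3 3'UTR in osteoblasts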
[10] = A Cell Based Secondary Assay To Explore Cytotoxicity of Compounds that Sensitize Mycobacterium Tuberculosis to Beta-Lactam Antibiotics.; assay type: functional
BJ [11] = assay: BJ-TERT-LT-ST fibroblast viability loss – cell-based, RAS-independent, luminescence, dose response (AID 1935); assay type: functional; settings: Homo sapiens;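 note: BJ fibroblasts immortalized with TERT plus LT and ST oncogenes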
BJ [12] = assay: BJ-TERT fibroblast viability loss – cell-based, RAS-independent, luminescence, dose response (AID 1933); assay type: functional; settings: Homo sapiens
[13] = HEK-293T viability loss after treatment – luminescence, T-cell screen hits, cytotoxicity control for TCR NF-kB inhibitor project, dose response (AID 489026); assay type: functional, cell-based;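 note: cells exposed to compound about 14 hours before the viability readout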
[14] = DRD fibroblast viability loss – cell-based, non-viral oncogenic, luminescence, dose response (AID 1934); assay type: functional; settings: Homo sapiens
BJ [15] = assay: cells; assay type: functional, cell-based; settings: Homo sapiens
Genome polyprotein = Genome polyprotein (dengue virus type 2, UniProt P29990); assay: flavivirus cap methylation enzyme inhibition – biochemical, confirmation dose response, primary screen (AID 588689); assay type: functional
Chain of Genome polyprotein (P29990 2492-3391 limits assumed): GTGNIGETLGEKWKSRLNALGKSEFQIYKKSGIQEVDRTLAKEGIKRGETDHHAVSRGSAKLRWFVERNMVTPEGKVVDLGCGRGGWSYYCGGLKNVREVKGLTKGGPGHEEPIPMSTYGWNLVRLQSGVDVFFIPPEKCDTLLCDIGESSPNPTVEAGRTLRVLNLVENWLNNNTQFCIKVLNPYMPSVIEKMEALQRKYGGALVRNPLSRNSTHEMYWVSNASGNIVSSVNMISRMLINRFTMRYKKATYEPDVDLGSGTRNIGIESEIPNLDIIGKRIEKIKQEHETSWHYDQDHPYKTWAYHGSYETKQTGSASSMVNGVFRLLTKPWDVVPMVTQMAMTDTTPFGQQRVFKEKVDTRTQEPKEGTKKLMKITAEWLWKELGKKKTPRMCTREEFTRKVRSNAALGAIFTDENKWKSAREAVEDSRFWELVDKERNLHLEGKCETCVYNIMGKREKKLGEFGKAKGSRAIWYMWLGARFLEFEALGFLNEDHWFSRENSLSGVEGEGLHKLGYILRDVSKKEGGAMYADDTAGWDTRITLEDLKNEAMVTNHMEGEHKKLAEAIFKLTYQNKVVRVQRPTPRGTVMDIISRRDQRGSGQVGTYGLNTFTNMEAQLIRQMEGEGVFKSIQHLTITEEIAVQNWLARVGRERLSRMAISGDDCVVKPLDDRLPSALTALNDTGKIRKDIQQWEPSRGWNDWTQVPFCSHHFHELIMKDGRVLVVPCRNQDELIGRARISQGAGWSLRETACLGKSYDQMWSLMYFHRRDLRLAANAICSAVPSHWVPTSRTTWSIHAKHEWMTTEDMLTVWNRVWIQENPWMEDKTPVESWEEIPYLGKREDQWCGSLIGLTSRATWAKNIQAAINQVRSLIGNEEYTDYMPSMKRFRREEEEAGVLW

[16] = target: T2, Rac GTPase-activating protein 1 (Homo sapiens, UniProt Q9H0H5); assay: blockers of MgcRacGAP-driven Rac1 GTP hydrolysis – biochemical, ADP Hunter fluorescence, primary and confirmatory, confirmation (AID 624330); assay type: functional
T2 sequence (Q9H0H5 whole entry): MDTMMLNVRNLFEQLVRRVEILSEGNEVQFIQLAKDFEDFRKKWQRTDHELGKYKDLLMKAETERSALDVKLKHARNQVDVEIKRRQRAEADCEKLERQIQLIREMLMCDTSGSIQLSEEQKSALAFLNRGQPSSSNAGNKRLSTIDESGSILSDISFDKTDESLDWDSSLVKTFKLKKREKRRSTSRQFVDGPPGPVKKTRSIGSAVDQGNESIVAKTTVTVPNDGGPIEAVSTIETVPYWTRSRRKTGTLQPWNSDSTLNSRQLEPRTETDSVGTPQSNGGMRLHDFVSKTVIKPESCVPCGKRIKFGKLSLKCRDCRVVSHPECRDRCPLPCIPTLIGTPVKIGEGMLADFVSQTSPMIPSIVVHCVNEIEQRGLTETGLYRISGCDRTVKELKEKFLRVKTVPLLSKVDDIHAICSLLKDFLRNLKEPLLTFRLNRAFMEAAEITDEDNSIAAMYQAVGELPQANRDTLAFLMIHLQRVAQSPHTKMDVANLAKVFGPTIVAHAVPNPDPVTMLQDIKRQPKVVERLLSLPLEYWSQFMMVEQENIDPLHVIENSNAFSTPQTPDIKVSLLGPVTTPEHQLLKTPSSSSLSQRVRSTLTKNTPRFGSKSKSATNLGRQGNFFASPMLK

[17] = target: T3, Carboxy-terminal domain RNA polymerase II polypeptide A small phosphatase 1 (Homo sapiens, UniProt Q9GZU7); assay: CTDSP1 inhibitors, concentration-response, biochemical, absorbance readout, ultra-high-throughput screen actives (AID 540297); assay type: functional
T3 sequence (Q9GZU7 whole entry): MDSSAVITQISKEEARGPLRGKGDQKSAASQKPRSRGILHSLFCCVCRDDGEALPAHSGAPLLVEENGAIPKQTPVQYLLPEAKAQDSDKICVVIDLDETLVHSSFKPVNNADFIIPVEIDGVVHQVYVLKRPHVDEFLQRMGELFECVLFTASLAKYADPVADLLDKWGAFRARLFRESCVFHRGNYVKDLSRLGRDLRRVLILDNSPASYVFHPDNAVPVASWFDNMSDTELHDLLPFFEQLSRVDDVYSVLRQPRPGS

[18] = target: T4, High affinity choline transporter 1 (Homo sapiens, UniProt Q9GZV3); assay: human choline transporter blockers, potency – cell-based, 5-point CRC, membrane potential dye, dose response (AID 504840); assay type: functional
T4 sequence (Q9GZV3 whole entry): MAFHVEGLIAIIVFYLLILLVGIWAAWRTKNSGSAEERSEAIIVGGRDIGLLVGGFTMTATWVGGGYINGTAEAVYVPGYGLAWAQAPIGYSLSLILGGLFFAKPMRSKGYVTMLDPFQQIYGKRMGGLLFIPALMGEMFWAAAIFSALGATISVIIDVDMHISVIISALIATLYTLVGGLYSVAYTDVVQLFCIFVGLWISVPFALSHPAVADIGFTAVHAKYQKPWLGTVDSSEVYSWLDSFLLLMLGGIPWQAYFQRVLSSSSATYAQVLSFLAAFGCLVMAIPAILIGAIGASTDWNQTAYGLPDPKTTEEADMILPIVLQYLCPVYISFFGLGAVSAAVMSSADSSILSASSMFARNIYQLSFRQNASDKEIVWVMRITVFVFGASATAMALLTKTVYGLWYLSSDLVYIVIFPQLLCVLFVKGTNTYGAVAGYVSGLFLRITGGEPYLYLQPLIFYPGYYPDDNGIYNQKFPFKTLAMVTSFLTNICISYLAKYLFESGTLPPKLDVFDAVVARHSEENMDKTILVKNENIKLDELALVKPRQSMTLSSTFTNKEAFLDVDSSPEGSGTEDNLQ

INS1 = assay: INS-1E survival protection against cytokine death – cell-based, luminescence, retest, dose response (AID 449756); assay type: functional; settings: Rattus norvegicus;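 note: cell death triggered by IL-1 beta plus TNF-alpha plus IFN-gamma mixture; protective hits raise ATP signal compared with cytokine alone wells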
[19] = target: T5, Heat shock factor protein 1 (Mus musculus, UniProt P38532); assay: enhancement of HSF1-driven luciferase signal – cell-based, NIH3T3, luminescence, dose retest, confirmation (AID 435004); assay type: functional;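 note: stress induced by proteasome inhibitor MG132 added 30 min after compound; luciferase reporter driven by HSF1 response element in NIH3T3 cells; actives raise luminescence as potentiators of the MG132 stress response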
T5 sequence (P38532 whole entry): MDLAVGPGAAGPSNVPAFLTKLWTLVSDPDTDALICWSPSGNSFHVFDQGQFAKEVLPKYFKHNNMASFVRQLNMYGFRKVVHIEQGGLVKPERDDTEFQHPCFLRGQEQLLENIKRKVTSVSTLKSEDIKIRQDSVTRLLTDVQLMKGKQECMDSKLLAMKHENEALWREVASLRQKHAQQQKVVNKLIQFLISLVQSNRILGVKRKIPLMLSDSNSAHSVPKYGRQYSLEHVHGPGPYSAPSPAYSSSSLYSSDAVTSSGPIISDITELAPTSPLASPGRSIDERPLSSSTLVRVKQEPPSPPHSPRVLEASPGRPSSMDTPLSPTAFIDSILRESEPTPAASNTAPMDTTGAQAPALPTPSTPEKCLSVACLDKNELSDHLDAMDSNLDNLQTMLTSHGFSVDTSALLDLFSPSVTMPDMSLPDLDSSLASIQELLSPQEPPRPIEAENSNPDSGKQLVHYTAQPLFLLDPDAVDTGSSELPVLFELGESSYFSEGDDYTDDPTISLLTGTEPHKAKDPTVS

[20] = blockers of bursicon-stimulated LGR2 cAMP reporter – cell-based, HEK293, CRE-luciferase reporter, cherry pick, set 2, dose response (AID 743343); assay type: functional;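 note: transfected cells were stimulated with diluted bursicon conditioned medium after compound addition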
[21] = blockade of melanocortin 4 receptor signaling – cell-based, plate reader, cherry pick, counter-screen for LGR2 antagonist project, dose response (AID 743444); assay type: functional;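 note: transfected HEK 293 cells stimulated with alpha-MSH peptide; potency of inhibitors of the alpha-MSH evoked signal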
[22] = A549 cell cytotoxicity, dose response, cytotoxicity control, plate reader, cherry-pick, antagonist series (AID 743412); assay type: functional, cell-based
[23] = toxicity toward HepG2 liver cells – cell-based, plate reader, cherry-pick, antagonist series, cytotoxicity control, dose response (AID 743416); assay type: functional
[24] = HIV-1 AD8 envelope cell-cell fusion blockers – cherry-pick, dose response (AID 652062); assay type: functional, cell-based;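 note: luciferase signal from cell-cell fusion driven by HIV-1 clade B AD8 Env; potency is for inhibitors of fusion seen as a drop in luminescence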
[25] = blockers of HIV-1 ZM109 envelope-driven cell-cell fusion – HeLa effector, CEM target cells, luciferase, cherry-pick, dose response (AID 652058); assay type: functional, cell-based;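 note: luciferase signal from HIV-1 Env mediated cell-cell fusion of effector and target cells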

**Q.** Which AC50 [1] does the source give for `CCN(CC)CCCN(C(=O)c1cccc(C)c1)c1nc(-c2ccc(OC)cc2)cs1` here?
**A.** 17.2 µM (active)

**Q.** With `CCOC(=O)c1c(CSc2ccc(CC)cc2)oc2ccc(O)c(CN(C)C)c12` as the compound, how does the EC50 [2] read?
**A.** > 120 µM (not active)

**Q.** And the AC50 [3]?
**A.** 14.1 µM (active)

**Q.** What about the EC50 [4] of the same compound?
**A.** 2.81 µM (active)

**Q.** And the EC50 [5]?
**A.** > 120 µM (not active)

**Q.** What about the AC50 [1] of the same compound?
**A.** 15.3 µM (active)

**Q.** What about the EC50 [6] of the same compound?
**A.** > 30 µM (not active)

**Q.** What about the EC50 [7] of the same compound?
**A.** > 120 µM (not active)

**Q.** What about the AC50 [8] of the same compound?
**A.** 30.8 µM (active)

**Q.** And the AC50 [9]?
**A.** 3.05 µM (active)

**Q.** For `O=C(Nc1ccc(C(F)(F)F)cc1)c1cc(-c2cccnc2)nc2ccc(Br)cc12`, which CC50 [10] is on record?
**A.** > 40 µM (active)

**Q.** What does the source list for `COc1cc(CC(=O)OCC(=O)c2ccc3c(c2)OCCO3)cc(OC)c1OC`?
**A.** EC50 [2]: 5.66 µM (active); EC50 [5]: 4.99 µM (inconclusive); EC50 (BJ [11]): 1.62 µM (inconclusive); EC50 [7]: 5.8 µM (inconclusive); EC50 (BJ [12]): 2.14 µM (active); IC50 [13]: > 80 µM (inactive); EC50 [14]: 2.47 µM (active); EC50 (BJ [15]): 15.1 µM (active)

**Q.** Which results are given for `O=C1NC(=O)N(c2ccc3c(c2)OCO3)C(=O)/C1=C\c1ccc(-c2ccccc2C(=O)O)o1`?
**A.** IC50 (Genome polyprotein): > 100 µM (active); IC50 [16]: 75.4 µM (active); IC50 [17]: 3.9 µM (active)

**Q.** What does the source list for `COc1cc(/C=C2\SC(NS(=O)(=O)Cc3ccccc3)=NC2=O)c([N+](=O)[O-])cc1OC`?
**A.** IC50 [18]: 9.12 µM (active); IC50 (Genome polyprotein): 55.8 µM (active)

**Q.** For `O=C1N=C(Nc2nc3ccccc3[nH]2)c2ccccc21`, which EC50 (BJ [11]) is on record?
**A.** 19.3 µM (active)

**Q.** And the AC50 (INS1)?
**A.** 3 µM (active)

**Q.** And the EC50 (BJ [12])?
**A.** 12.5 µM (active)

**Q.** And the EC50 [14]?
**A.** 14.9 µM (active)

**Q.** What about the EC50 [19] of the same compound?
**A.** 0.987 µM (inconclusive)

**Q.** And the EC50 (BJ [15])?
**A.** 24.8 µM (inconclusive)

**Q.** For `CCCOc1ccc(F)cc1-c1cc(C(=O)Nc2cc(OC)c(OC)c(OC)c2)[nH]n1`, which AC50 [20] is on record?
**A.** 24 µM (active)

**Q.** What about the AC50 [21] of the same compound?
**A.** 31.2 µM (active)

**Q.** What about the AC50 [22] of the same compound?
**A.** > 52 µM (inactive)

**Q.** What about the AC50 [23] of the same compound?
**A.** > 52 µM (inactive)

**Q.** Which AC50 [24] does the source give for `COc1ccc(S(=O)(=O)N[C@@H]2C=C[C@H](CC(=O)N3CCC(Cc4ccccc4)CC3)O[C@@H]2CO)cc1` here?
**A.** 32.6 µM (active)

**Q.** And the AC50 [25]?
**A.** 19 µM (active)

**Q.** With `COc1ccccc1S(=O)(=O)N[C@H]1CC[C@@H](CC(=O)N2CCN(C)CC2)O[C@H]1CO` as the compound, how does the AC50 [24] read?
**A.** 29.1 µM (active)

**Q.** What about the AC50 [25] of the same compound?
**A.** 0.992 µM (active)
